Experimental data: the supplement of paper PMC12463676, “Small-molecule dissolution of stress granules by redox modulation benefits ALS models” (Nature Chemical Biology, 2025)

Experiments:
potassium arsenate = compound: O=[As]([O-])(O)O.[K+] [potassium arsenate]; assay: thermal stability z-score vs DMSO; higher = more thermally stabilized by treatment; details: HeLa; arsenate concentration 1 mM
Procedure: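 Cellular thermal proteome profiling in HeLa cells treated with 1 mM arsenate for 1 h (DMSO pretreatment), heated to ten temperatures (37-66.3 °C). Soluble protein was quantified by TMT mass spectrometry relative to DMSO controls; the thermal stability score was transformed to a z-score; mean of n = 3 experiments.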

lipoamide = compound: NC(=O)CCCCC1CCSS1 [lipoamide]; assay: as above; details: HeLa, lipoamide concentration 100 µM
Procedure: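 Cellular thermal proteome profiling in HeLa cells. Cells were treated with 100 µM lipoamide for 1 h, with or without 1 mM arsenate for a further 1 h, then heated to ten temperatures (37-66.3 °C), and soluble protein was quantified by TMT mass spectrometry relative to 0.1% DMSO controls. The thermal stability score (sum of log2 fold changes minus the abundance score) was transformed to a z-score; mean of n = 3 experiments.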

[1] = arsenate co-treatment: 1 mM arsenate 1 h
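Note: each temperature applied for 3 min, abundance score taken as mean log2 fold change at the two lowest temperatures, z-score obtained by mean subtraction and division by SD.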

Chain of UniProt P49792 (P49792 whole entry): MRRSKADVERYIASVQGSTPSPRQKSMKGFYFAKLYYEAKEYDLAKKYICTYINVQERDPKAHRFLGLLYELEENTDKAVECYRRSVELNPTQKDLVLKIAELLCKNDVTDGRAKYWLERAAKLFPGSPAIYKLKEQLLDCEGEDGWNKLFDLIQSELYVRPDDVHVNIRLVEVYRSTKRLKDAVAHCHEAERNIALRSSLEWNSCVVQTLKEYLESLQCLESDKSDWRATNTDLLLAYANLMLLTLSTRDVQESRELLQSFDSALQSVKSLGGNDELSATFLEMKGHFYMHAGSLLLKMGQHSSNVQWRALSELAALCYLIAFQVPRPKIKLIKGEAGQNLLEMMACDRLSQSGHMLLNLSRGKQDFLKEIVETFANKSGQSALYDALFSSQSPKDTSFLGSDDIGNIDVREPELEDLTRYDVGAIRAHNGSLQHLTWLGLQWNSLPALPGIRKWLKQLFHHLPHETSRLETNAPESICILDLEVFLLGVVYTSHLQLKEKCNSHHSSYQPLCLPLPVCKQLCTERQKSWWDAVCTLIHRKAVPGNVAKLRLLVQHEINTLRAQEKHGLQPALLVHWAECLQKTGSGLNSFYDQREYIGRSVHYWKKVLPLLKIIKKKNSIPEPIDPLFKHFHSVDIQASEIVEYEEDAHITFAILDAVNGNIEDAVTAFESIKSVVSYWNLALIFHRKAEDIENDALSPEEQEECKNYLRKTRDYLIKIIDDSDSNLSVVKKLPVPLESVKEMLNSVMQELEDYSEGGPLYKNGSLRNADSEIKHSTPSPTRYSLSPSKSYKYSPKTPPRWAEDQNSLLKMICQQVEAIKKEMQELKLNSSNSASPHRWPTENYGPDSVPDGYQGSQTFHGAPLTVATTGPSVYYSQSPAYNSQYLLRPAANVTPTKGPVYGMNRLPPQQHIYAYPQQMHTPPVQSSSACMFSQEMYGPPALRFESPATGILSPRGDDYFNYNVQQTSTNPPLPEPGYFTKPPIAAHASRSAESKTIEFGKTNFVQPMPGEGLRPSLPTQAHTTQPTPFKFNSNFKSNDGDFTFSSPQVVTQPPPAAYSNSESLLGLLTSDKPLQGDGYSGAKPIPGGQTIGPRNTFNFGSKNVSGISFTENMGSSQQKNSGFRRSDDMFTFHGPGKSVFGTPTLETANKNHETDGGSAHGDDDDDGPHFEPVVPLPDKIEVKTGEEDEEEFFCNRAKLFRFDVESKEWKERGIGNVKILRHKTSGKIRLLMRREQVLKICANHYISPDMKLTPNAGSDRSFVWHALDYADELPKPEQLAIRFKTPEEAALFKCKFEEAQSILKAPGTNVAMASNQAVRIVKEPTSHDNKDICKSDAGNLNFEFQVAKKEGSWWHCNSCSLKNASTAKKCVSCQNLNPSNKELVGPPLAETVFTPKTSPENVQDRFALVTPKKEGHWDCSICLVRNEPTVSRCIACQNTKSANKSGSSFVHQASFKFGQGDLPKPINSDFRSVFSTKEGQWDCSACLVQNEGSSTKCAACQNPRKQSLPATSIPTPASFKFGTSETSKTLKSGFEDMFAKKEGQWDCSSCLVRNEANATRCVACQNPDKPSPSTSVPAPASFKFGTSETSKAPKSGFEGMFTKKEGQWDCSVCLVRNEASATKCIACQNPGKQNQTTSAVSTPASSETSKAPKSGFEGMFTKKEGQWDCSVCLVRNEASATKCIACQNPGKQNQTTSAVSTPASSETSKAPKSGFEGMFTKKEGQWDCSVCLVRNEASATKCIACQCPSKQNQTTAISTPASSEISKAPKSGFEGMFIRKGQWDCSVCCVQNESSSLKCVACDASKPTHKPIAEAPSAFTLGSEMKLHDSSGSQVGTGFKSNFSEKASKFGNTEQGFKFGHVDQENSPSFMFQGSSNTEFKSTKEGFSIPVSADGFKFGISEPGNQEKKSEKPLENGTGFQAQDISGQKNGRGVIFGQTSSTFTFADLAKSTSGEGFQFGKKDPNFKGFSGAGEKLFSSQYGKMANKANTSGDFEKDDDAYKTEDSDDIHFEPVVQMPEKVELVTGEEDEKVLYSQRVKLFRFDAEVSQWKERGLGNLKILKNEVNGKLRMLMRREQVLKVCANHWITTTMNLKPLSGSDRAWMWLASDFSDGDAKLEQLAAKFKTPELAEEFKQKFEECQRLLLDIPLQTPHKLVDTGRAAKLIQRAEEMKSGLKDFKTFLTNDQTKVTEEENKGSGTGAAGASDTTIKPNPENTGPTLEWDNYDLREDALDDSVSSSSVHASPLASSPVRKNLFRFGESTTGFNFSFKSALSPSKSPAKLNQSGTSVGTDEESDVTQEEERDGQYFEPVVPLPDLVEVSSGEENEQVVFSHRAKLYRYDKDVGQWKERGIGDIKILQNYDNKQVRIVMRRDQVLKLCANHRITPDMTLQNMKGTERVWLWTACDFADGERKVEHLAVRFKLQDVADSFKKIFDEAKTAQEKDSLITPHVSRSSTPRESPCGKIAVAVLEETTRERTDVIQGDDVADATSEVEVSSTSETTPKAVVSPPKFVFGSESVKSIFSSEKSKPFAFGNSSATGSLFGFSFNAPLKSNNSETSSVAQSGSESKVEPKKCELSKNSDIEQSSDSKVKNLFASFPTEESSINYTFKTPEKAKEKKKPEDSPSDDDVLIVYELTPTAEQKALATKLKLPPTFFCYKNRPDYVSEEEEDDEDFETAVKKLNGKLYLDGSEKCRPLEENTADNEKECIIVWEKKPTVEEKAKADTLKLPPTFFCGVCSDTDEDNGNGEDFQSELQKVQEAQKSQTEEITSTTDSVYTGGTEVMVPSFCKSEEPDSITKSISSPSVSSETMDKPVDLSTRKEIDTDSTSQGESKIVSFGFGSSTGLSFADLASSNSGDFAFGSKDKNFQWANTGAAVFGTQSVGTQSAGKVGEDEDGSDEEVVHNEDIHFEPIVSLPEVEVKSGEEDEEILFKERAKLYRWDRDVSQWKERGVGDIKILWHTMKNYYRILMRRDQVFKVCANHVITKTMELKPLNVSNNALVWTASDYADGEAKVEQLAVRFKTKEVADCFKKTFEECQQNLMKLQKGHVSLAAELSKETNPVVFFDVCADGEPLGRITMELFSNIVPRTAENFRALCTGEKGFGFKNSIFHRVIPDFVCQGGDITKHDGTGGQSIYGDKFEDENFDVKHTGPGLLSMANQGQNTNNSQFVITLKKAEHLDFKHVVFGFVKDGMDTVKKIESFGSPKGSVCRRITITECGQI
Chain of UniProt Q13637 (Q13637 whole entry): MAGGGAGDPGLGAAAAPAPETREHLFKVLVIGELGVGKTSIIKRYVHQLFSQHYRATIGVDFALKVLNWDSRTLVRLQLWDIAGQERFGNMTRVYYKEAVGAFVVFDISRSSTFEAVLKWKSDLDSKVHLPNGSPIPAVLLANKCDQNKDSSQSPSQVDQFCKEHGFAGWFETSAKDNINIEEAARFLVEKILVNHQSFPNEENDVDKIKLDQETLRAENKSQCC
Chain of UniProt Q6VN20 (Q6VN20 whole entry): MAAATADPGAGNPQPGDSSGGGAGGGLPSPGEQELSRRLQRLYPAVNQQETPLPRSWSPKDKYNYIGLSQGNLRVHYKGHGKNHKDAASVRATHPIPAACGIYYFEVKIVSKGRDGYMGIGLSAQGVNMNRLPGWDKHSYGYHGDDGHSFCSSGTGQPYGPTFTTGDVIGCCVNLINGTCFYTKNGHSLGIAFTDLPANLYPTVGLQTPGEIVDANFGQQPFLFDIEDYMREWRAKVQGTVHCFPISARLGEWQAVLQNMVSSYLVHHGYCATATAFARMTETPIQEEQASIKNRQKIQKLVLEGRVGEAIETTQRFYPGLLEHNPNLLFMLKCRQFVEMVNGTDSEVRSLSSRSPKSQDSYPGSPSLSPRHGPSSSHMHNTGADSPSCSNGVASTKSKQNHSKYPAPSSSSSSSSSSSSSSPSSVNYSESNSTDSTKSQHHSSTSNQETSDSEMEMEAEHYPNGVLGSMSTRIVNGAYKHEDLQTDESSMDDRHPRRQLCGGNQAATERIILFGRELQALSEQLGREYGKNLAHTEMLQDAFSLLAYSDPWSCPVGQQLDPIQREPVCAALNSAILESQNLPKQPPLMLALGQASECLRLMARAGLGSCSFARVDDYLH
Chain of UniProt Q86X27 (Q86X27 whole entry): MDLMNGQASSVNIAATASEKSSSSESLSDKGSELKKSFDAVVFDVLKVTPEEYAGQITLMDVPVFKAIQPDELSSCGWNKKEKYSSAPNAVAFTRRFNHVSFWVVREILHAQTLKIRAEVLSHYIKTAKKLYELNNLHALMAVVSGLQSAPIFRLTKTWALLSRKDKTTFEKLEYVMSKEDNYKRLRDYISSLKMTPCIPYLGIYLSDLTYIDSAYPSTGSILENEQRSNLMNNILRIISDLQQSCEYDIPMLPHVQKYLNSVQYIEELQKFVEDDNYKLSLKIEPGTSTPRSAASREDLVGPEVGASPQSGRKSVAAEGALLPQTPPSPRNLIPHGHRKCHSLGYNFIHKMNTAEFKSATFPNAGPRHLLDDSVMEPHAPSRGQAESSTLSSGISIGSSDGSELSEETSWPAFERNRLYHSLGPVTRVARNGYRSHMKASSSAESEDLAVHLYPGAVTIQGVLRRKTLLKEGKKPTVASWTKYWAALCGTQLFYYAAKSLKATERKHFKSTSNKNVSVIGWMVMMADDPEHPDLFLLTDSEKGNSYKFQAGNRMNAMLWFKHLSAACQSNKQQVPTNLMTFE
Chain of UniProt Q06609 (Q06609 whole entry): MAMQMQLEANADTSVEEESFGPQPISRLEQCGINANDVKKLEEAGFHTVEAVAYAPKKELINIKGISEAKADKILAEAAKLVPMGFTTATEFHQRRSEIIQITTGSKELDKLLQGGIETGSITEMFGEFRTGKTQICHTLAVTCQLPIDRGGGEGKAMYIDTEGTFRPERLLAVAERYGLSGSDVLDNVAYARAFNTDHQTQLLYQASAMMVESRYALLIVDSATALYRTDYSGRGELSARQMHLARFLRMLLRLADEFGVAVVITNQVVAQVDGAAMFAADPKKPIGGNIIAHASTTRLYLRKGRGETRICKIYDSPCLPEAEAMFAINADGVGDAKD

Target	thermal stability z-score (potassium arsenate)	thermal stability z-score (lipoamide; [1])	thermal stability z-score (lipoamide; arsenate co-treatment: none)
RAB29 (UniProt O14966)	0.157	0.114	-0.0606
RAB30 (UniProt Q15771)	0.498	-0.315	-0.0453
RAB31 (UniProt Q13636)	0.42	0.762	0.822
RAB32 (UniProt Q13637)	0.411	-0.0545	-0.0863
RAB33B (UniProt Q9H082)	0.955	0.43	0.463
RAB34	-0.0345	0.732	0.783
RAB35 (UniProt Q15286)	-0.435	-0.564	0.0595
RAB43 (UniProt Q86YS6)	1.35	-0.0743	1.38
RABAC1 (UniProt Q9UI14)	-0.431	0.138	-0.0907
RABEP1 (UniProt Q15276)	0.182	-0.36	-0.194
RABEP2 (UniProt Q9H5N1)	1.26	0.129	0.15
RABEPK (UniProt Q7Z6M1)	-0.0506	0.68	0.305
RABGAP1 (UniProt Q9Y3P9)	0.318	-0.333	-0.253
RABGAP1L	0.339	-0.279	-0.536
RABGEF1 (UniProt Q9UJ41)	-0.113	-0.0343	-0.0874
RABGGTA (UniProt Q92696)	-0.000862	-0.0918	-0.138
RABGGTB (UniProt P53611)	1.46	0.508	-0.0991
RABIF (UniProt P47224)	-0.572	0.243	0.233
RABL2A|RABL2B	-0.151	0.0788	-0.011
RABL3 (UniProt Q5HYI8)	-0.0747	-0.437	-0.307
RABL6 (UniProt Q3YEC7)	-0.246	-0.678	-0.754
RAC1 (UniProt P63000)	0.562	0.154	-0.0299
RACGAP1 (UniProt Q9H0H5)	-0.148	-0.198	-0.0575
RACK1 (UniProt P63244)	-0.92	0.56	0.4

Target	thermal stability z-score (potassium arsenate)	thermal stability z-score (lipoamide; [1])	thermal stability z-score (lipoamide; arsenate co-treatment: none)
RAD1 (UniProt O60671)	1.31	1.26	0.445
RAD17 (UniProt O75943)	-0.848	-0.324	-0.278
RAD18 (UniProt Q9NS91)	-0.0799	-0.082	-0.0293
RAD21 (UniProt O60216)	0.297	0.628	0.377
RAD23A (UniProt P54725)	-0.142	0.0472	0.234
RAD23B (UniProt P54727)	0.357	1.08	1.05
RAD50 (UniProt Q92878)	-0.768	0.0652	-0.163
RAD51 (UniProt Q06609)	-0.0411	0.0327	0.256
RAD51AP1 (UniProt Q96B01)	-0.76	0.0622	-0.213
RAD51B (UniProt O15315)	0.578	0.231	0.428
RAD54B (UniProt Q9Y620)	-0.753	-0.335	-0.346
RAD54L2 (UniProt Q9Y4B4)	-0.235	-0.0715	0.0462
RAE1 (UniProt P78406)	0.662	0.676	1.04
RAF1 (UniProt P04049)	-0.0609	-0.142	0.126
RAI14 (UniProt Q9P0K7)	-0.554	-0.47	-0.419
RALA (UniProt P11233)	-0.459	0.107	-0.0183
RALB (UniProt P11234)	0.0205	0.25	-0.129
RALBP1 (UniProt Q15311)	0.00922	0.0469	0.055
RALGAPA1 (UniProt Q6GYQ0)	-2.14	-0.102	-0.115
RALGAPB (UniProt Q86X10)	-0.112	-0.0332	-0.00538
RALGPS2 (UniProt Q86X27)	-0.177	-0.0453	0.191
RALY (UniProt Q9UKM9)	0.00385	0.0855	-0.0305
RAN (UniProt P62826)	0.547	0.345	-0.105
RANBP1 (UniProt P43487)	0.475	-0.127	0.319

Target	thermal stability z-score (potassium arsenate)	thermal stability z-score (lipoamide; [1])	thermal stability z-score (lipoamide; arsenate co-treatment: none)
RANBP2 (UniProt P49792)	1.49	-0.733	-0.425
RANBP3 (UniProt Q9H6Z4)	-0.0109	-0.326	0.21
RANBP6 (UniProt O60518)	-0.131	-0.296	-0.155
RANBP9 (UniProt Q96S59)	-0.508	-0.364	-0.234
RANBP10 (UniProt Q6VN20)	0.3	0.521	0.385
RANGAP1 (UniProt P46060)	1.77	0.0948	0.327
RAP1A (UniProt P62834)	-0.254	0.141	-0.173
RAP1B (UniProt P61224)	0.17	0.74	0.45
RAP1GAP2 (UniProt Q684P5)	0.124	1.12	0.923
RAP1GAP (UniProt P47736)	0.233	-0.459	-0.26
RAP1GDS1 (UniProt P52306)	0.353	0.161	-0.118
RAP2B (UniProt P61225)	-0.0313	0.92	0.134
RAP2C (UniProt Q9Y3L5)	0.21	1.35	0.676
RAPGEF2 (UniProt Q9Y4G8)	-0.388	0.309	-0.293
RAPH1 (UniProt Q70E73)	0.0198	-0.113	-0.22
RARS2 (UniProt Q5T160)	0.328	0.0904	-0.0472
RARS (UniProt P54136)	0.39	-0.341	-0.305
RASA1 (UniProt P20936)	1.15	0.447	0.753
RASA2 (UniProt Q15283)	-0.334	-0.0591	-0.273
RASA3 (UniProt Q14644)	0.0995	0.0194	0.0519
RASAL2 (UniProt Q9UJF2)	-0.227	-0.126	0.0905
RASSF1 (UniProt Q9NS23)	-0.089	-0.0475	0.04
RASSF5 (UniProt Q8WWW0)	0.498	-0.444	-0.459
